Test results from patent publication EP3974434B1, “MACROLIDE DERIVATIVES, PREPARATION METHOD AND APPLICATION THEREOF” (Zhejiang Hisun Pharmaceutical Co., Ltd., priority 2019, dated 2020).

Legend:
Type in all cases: biochemical
TRKC = target: T1, TRKC (Homo sapiens, UniProt Q16288); assay: HTRF KinEASE-TK kinase activity inhibition assay, TRKC; details: ATP 50 µM
T1 construct: purchased Carna bioscience 08-197
Excerpt: (§1) The following method was used to determine the inhibition degrees of the compounds of the present invention on the activity of recombinant human NTRK family kinase in vitro. In this method, HTRF®KinEASE-TK tyrosine kinase kit (article number: 62TK0PEB) of Cisbio company was used, and the principle of the kit was based on time-resolved fluorescence resonance energy transfer (TF-FRET), and the inhibition of the compounds on the activity of the NTRK kinase was reflected by determining a phosphorylation degree of a biotinylated polypeptide substrate mediated by NTRK kinase. For detailed experimental operation, please refer to the kit instruction. Recombinant human wild-type NTRK proteins were purchased from Carna bioscience (the article numbers were TRKA #08-186, TRKB #08-187 and TRKC #08-197 respectively), and recombinant human mutant NTRK proteins were purchased from SignalChem (the article numbers were TRKA G595R #N16-12BG-10, TRKA G667C # N16-12CG-10, and TRKC G623R # N18-12CH-10 respectively).
(§2) The experimental methods were operated according to the steps in the kit instruction, and were briefly described as follows: a test compound was first dissolved in DMSO to prepare a storage solution, and then diluted in gradient with a buffer provided in the kit. A final concentration of the test compound in the reaction system ranged from 1,000 nM to 0.004 nM. An ATP Km value concentration of each NTRK protein was determined by using an ATP solution diluted in gradient (Sangon Biotech (Shanghai) Co., Ltd., A600311). According to the Km value obtained, the ATP concentrations in the reaction system were set as 100 µM for TRKA, 10 µM for TRKB, 50 µM for TRKC, 7 µM for TRKA(G595R), 1 µM for TRKA(G667C) and 100 µM for TRKC(G623R). The reaction was carried out in a 384-well microplate. Firstly, the compound and a certain amount of corresponding NTRK protein were added to the wells and incubated for 5 minutes to 10 minutes at room temperature. Then, the ATP solution and the biotinylated polypeptide substrate solution were added to the reaction solution and incubated with shaking at room temperature for 60 minutes. Then, an anti-phosphorylated tyrosine antibody coupled with a europium compound and streptavidin coupled with modified allophycocyanin XL665 were added to the reaction, and continuously incubated with shaking at room temperature for 1 hour. After incubation, fluorescence intensity values of each well at an excitation wavelength of 304 nm, and emission wavelengths of 620 nm and 665 nM were determined in a TF-FRET mode on a microplate reader. Compared with the fluorescence intensity ratio of a control group (0.1% DMSO), the percentage inhibition rates of the compound at each concentration were calculated, and the IC50 value of the compound was obtained by performing nonlinear regression analysis for logarithmic value of the compound concentration - inhibition rate by GraphPad Prism 5 software, which can be seen in Table 1. Table 1 IC50 data of the compounds of the present invention on TRK enzyme activity inhibition

TRKA(G667C) = target: T2, TRKA(G667C) (Homo sapiens, UniProt P04629, G667C); assay: HTRF KinEASE-TK kinase activity inhibition assay, TRKA(G667C); details: ATP 1 µM
T2 construct: purchased SignalChem N16-12CG-10
Excerpt: as §1, §2

TRKB = target: T3, TRKB (Homo sapiens, UniProt Q16620); assay: HTRF KinEASE-TK kinase activity inhibition assay, TRKB; details: ATP 10 µM
T3 construct: purchased Carna bioscience 08-187
Excerpt: as §1, §2

TRKC(G623R) = target: T4, TRKC(G623R) (Homo sapiens, UniProt Q16288, G623R); assay: HTRF KinEASE-TK kinase activity inhibition assay, TRKC(G623R); details: ATP 100 µM
T4 construct: purchased SignalChem N18-12CH-10
Excerpt: as §1
as §2, with “Then, an anti-phosphorylated tyrosine antibody coupled with a europium compound and streptavidin coupled with modified allophycocyanin XL665 were added to the reaction, and continuously incubated with shaking at room temperature for 1 hour.” left out, “Table 1 IC50 data of the compounds of the present invention on TRK enzyme activity inhibition” left out

TRKA(G595R) = target: T5, TRKA(G595R) (Homo sapiens, UniProt P04629, G595R); assay: HTRF KinEASE-TK kinase activity inhibition assay, TRKA(G595R); details: ATP 7 µM
T5 construct: purchased SignalChem N16-12BG-10
Excerpt: as §1, §2

TRKA = target: T6, TRKA (Homo sapiens, UniProt P04629); assay: HTRF KinEASE-TK kinase activity inhibition assay, TRKA; details: ATP 100 µM
T6 construct: purchased Carna bioscience 08-186
Excerpt: as §1, §2

T3 sequence (Q16620 32-822): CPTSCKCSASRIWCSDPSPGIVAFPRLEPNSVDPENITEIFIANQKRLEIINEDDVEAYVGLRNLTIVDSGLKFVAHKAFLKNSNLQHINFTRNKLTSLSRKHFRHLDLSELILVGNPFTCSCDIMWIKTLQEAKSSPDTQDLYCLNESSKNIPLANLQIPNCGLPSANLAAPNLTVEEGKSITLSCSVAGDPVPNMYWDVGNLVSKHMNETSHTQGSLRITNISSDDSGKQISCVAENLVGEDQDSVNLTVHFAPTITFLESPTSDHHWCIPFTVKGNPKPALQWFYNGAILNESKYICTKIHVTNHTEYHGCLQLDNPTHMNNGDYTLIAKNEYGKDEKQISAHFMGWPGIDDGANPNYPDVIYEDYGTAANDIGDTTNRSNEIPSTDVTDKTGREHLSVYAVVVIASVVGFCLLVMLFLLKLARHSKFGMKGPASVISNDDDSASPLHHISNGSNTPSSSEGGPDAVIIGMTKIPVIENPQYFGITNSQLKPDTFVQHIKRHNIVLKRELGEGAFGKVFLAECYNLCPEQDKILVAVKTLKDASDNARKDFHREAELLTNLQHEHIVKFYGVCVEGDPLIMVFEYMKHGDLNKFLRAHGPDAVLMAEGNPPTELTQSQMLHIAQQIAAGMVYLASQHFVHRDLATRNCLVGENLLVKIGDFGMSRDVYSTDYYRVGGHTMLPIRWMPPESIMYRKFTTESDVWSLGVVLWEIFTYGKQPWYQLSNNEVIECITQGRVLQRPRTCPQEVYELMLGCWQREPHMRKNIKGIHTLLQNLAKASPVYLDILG
T1 sequence (Q16288 32-839): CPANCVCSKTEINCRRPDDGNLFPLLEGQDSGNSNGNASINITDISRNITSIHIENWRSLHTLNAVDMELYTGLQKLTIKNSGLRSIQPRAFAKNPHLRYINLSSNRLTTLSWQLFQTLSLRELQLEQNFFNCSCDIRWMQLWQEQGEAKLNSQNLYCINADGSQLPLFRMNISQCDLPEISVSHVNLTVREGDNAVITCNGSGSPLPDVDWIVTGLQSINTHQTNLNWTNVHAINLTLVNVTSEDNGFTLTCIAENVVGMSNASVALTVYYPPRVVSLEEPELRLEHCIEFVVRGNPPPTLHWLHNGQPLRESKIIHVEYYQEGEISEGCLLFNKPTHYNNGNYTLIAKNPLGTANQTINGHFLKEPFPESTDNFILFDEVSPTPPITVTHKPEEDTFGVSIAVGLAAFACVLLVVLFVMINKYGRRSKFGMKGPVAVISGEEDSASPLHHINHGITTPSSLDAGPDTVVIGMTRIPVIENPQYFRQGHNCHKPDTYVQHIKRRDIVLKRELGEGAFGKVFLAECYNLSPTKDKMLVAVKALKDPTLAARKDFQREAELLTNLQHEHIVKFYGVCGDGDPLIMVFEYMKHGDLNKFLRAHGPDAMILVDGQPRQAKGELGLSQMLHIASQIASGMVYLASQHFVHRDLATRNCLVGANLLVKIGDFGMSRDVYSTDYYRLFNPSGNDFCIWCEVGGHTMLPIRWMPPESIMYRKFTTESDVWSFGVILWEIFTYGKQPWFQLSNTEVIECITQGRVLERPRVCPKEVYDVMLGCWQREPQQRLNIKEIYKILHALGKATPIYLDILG
T2 sequence (P04629 33-796 G667C): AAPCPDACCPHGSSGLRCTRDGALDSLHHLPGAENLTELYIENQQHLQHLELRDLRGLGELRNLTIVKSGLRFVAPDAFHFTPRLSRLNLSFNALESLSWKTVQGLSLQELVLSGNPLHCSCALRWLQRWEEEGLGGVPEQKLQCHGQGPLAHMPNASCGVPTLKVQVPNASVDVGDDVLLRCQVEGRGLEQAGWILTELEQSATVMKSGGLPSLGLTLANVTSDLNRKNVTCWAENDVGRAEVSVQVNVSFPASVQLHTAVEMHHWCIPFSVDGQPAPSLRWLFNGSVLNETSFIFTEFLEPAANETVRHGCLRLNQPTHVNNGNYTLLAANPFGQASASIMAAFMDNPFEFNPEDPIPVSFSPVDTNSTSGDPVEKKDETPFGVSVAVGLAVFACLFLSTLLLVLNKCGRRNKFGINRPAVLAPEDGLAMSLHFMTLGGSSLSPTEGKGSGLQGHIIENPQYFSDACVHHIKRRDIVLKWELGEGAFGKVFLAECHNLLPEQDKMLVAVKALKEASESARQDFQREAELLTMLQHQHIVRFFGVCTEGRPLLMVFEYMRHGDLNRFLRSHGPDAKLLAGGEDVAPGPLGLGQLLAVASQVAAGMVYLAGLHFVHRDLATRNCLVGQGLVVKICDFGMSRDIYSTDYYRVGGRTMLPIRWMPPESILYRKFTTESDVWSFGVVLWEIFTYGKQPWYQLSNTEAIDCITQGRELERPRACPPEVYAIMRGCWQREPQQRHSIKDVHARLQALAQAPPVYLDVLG
T4 sequence (Q16288 32-839 G623R): as the sequence (Q16288 32-839) above, with G592R counted along it
T5 sequence (P04629 33-796 G595R): as the sequence (P04629 33-796 G667C) above, with G563R, C635G counted along it
T6 sequence (P04629 33-796): as the sequence (P04629 33-796 G667C) above, with C635G counted along it

For C[C@H]1Nc2ccn3ncc(c3n2)C(=O)NCC2(C)Cc3cc(Cl)cc1c3O2 (stereo partly drawn) [Example 22, (3R)-6-chloro-3,11-dimethyl-10-oxa-2,13,17,18,21-pentaazapentacyclo[13.5.2.1^8,11.0^4,9.0^18,22]tricosa-1 (21),4,6,8,15(22),16,19-heptaen-14-one], the IC50 (TRKC) was 0.52 nM, the IC50 (TRKA(G667C)) was 4.6 nM and the IC50 (TRKB) was 0.36 nM. The IC50 (TRKC(G623R)) was 7.4 nM, the IC50 (TRKA(G595R)) was 4.97 nM and the IC50 (TRKA) was 0.98 nM.
